What was measured:
Assay type in all cases: in vivo, mouse
SREBP1c-CIDEA pathway = experiment: liver mRNA and protein expression (qPCR, western blot); details: for protein levels of mature nuclear SREBP1 and CIDEA in the liver: HFD 16 weeks
Protocol: The mucosa of intestine was gently scraped and liver was taken and both were flash frozen in liquid nitrogen and stored at −80° C. until RNA was prepared. RNA was extracted from frozen intestine and liver using TRIzol reagent (Invitrogen, Carlsbad, Calif.). cDNA was synthesized from 1 μg total RNA using Superscript II reverse transcriptase (Invitrogen, Carlsbad, Calif.). qPCR primers were designed with qPrimerDepot. Measured mRNA levels were normalized to those of 18S ribosomal RNA and expressed as fold change relative to those of control group.
Liver whole-cell or nuclear extracts were prepared. Membranes were incubated with antibodies against FXR (Santa Cruz Biotechnology, Inc., Santa Cruz, Calif.), SREBP1 (BD Biosciences, San Jose, Calif.), and CIDEA (Abcam, Cambridge, Mass.). The signals obtained were normalized to β-ACTIN (Abcam) for whole cell extract and LAMIN A/C (Santa Cruz) for nuclear extracts.

[1] = system: high-fat diet-treated Fxr^fl/fl and Fxr^ΔIE mice; experiment: body mass gain of tempol-treated mice on a high-fat diet; details: high-fat diet 10 weeks
Text: High-fat diet (HFD) (60% kcal consisting of fat) was purchased from Bioserv. […] Fxr^fl/fl and Fxr^ΔIE (Kim et al., J. Lipid Res. 48:2664-2672, 2007) mice were backcrossed with C57BL/6N mice for over 10 generations. For the antibiotic (the combination of bacitracin, neomycin, and streptomycin) study, male C57BL/6N mice from 6 weeks of age were fed a high-fat diet (“HFD) and administered 0.1% (w/v) of each compound (the combination of bacitracin, neomycin, and streptomycin) in the drinking water. […] For TβMCA in vivo, male C57BL/6N mice from 6 weeks of age were fed a HFD and treated with the antibiotics (0.1% of each compound of bacitracin, neomycin, and streptomycin combination) for 3 days. Vehicle (saline), TCA (400 mg/kg body weight, dissolved in saline) or a combination of TCA and TβMCA (400 mg/kg body weight of each compound, dissolved in saline) were orally administered to the mice and followed by a second dose 12 h later. The mice were killed 2 h later for tissue collection. For the Gly-MCA study, Gly-MCA was custom synthesized. […] Cumulative food intake and TEEbal were measured for 1 week in vehicle and Gly-MCA-treated mice from 6 to 7 weeks of HFD. TEEbal was measured as previously described (Ravussin et al., Int. J. Obesity 37:399-403, 2013). […]

[2] = system: bile salt hydrolase (BSH); experiment: fecal bile salt hydrolase activity; details: tempol vs vehicle
Protocol: Fecal proteins were prepared from feces samples (0.5 g) in pH 7.4 phosphate buffered saline (PBS, 5.0 mL) using sonication. […] Briefly, incubation was carried out in 3 mM sodium acetate buffer, pH 5.2, containing 0.1 mg/ml fecal protein and 50 μM TCDCA-d5 in a final volume of 200 μL. After a 20 min incubation at 37° C., the reaction was stopped by plunging the samples into dry ice. 100 μL of acetonitrile was directly added to the reaction mix. After centrifuging at 14,000×g for 20 min, 5 μL of the supernatant was transferred to an auto sampler vial subjected to analysis by a UPLC system coupled with a XEVO triple quadrupole tandem mass spectrometer (Waters Corp., Milford, Mass.).

HFD-induced NAFLD model = experiment: HFD-induced NAFLD model: liver histology, liver weight, triglycerides (tempol, antibiotic)
Text: High-fat diet (HFD) (60% kcal consisting of fat) was purchased from Bioserv. […] Fxr^fl/fl and Fxr^ΔIE (Kim et al., J. Lipid Res. 48:2664-2672, 2007) mice were backcrossed with C57BL/6N mice for over 10 generations. For the antibiotic (the combination of bacitracin, neomycin, and streptomycin) study, male C57BL/6N mice from 6 weeks of age were fed a high-fat diet (“HFD) and administered 0.1% (w/v) of each compound (the combination of bacitracin, neomycin, and streptomycin) in the drinking water. […] For TβMCA in vivo, male C57BL/6N mice from 6 weeks of age were fed a HFD and treated with the antibiotics (0.1% of each compound of bacitracin, neomycin, and streptomycin combination) for 3 days. Vehicle (saline), TCA (400 mg/kg body weight, dissolved in saline) or a combination of TCA and TβMCA (400 mg/kg body weight of each compound, dissolved in saline) were orally administered to the mice and followed by a second dose 12 h later. The mice were killed 2 h later for tissue collection. For the Gly-MCA study, Gly-MCA was custom synthesized. Bacon-flavored dough pills were produced as described (Walker et al., Toxicol. Appl. Pharmacol. 260:65-69, 2012) for oral administration of Gly-MCA (0.25 mg Gly-MCA/pill, dose of 10 mg/kg). Mice were trained to eat the dough pills prior to the study. For the prevention of obesity, insulin resistance and NAFLD, male wild-type (WT) C57BL/6N mice, 6- to 8-weeks-old, were fed a high-fat diet (Bio-Serv, Frenchtown, N.J.; 60 kcal % fat) from the age of 6 weeks and were orally administered with vehicle (control pills) or Gly-MCA (0.25 mg/pill/day, dose 10 mg/kg). C57BL/6N mice fed a high-fat diet for 12 weeks were administered (0.25 mg Gly-MCA/pill, dose of 5 mg/kg). Leptin-deficient db/db mice, 6- to 8-weeks-old, fed a chow diet, were administered Gly-MCA (0.25 mg/pill/day, 10 mg/kg). Mice were housed individually in their home cages. Cumulative food intake and TEEbal were measured for 1 week in vehicle and Gly-MCA-treated mice from 6 to 7 weeks of HFD. TEEbal was measured as previously described (Ravussin et al., Int. J. Obesity 37:399-403, 2013).
Hematoxylin and eosin (H&E) staining were performed on formalin fixed paraffin embedded sections using a standard protocol. Oil red 0 staining was performed on frozen liver sections using a standard protocol. At least three discontinuous liver sections were evaluated for each mouse.
Hepatic lipids were extracted using a 2:1 chloroform-methanol solution. Liver triglycerides were measured with a triglyceride colorimetric assay kit, according to the manufacturer's recommendation (Bioassay Systems, Hayward, Calif.).

SMILES: CC1(C)CC(O)CC(C)(C)N1[O] [tempol, 4-hydroxy-2,2,6,6,-tetramethylpiperidine-1-oxyl]
- protein levels of mature nuclear SREBP1 and CIDEA in the liver (SREBP1c-CIDEA pathway; Fxr^ΔIE mice treated with tempol): no decrease
- inflammation-related genes (Tlr2, Tlr4, Tlr9, Tnfα) mRNA in liver (SREBP1c-CIDEA pathway; HFD 7 weeks): comparable
- protein levels of mature nuclear SREBP1 and CIDEA in the liver (SREBP1c-CIDEA pathway; tempol-treated Fxr^fl/fl mice): significantly reduced
- weight gain less than that of vehicle treated mice ([1]; Fxr^fl/fl mice): approximately 65%
- weight gain vs vehicle ([1]; Fxr^ΔIE mice): insignificant difference in weight gain
- bile salt hydrolase (BSH) enzymatic activity in the feces [2]: significant downregulation
- liver weights (HFD-induced NAFLD model; Fxr^fl/fl mice, HFD): significantly reduced
- hepatic lipid droplets (liver histology) (HFD-induced NAFLD model; Fxr^fl/fl mice, HFD 14 weeks (antibiotic) and 16 weeks (tempol)): decreased hepatic lipid droplets
- hepatic lipid (liver histology) (HFD-induced NAFLD model; Fxr^ΔIE mice, HFD): no changes in hepatic lipid
- hepatic triglyceride content (hepatic steatosis) (HFD-induced NAFLD model; Fxr^ΔIE mice, HFD): did not alleviate hepatic steatosis
- liver weights (HFD-induced NAFLD model; HFD): decreased
- hepatic triglyceride (TG) contents decreased to (HFD-induced NAFLD model; HFD, relative to vehicle): ~35%
- hepatic lipid droplets (liver histology) (HFD-induced NAFLD model; tempol: HFD 16 weeks, antibiotic: HFD 7 weeks): significant reduction in hepatic lipid droplets

From patent US10233209B2, “Inhibitors of the farnesoid x receptor and uses in medicine” (The United States of America, as represented by the …, priority 2013, dated 2019)
